Reference: US7919471B2, “Method of modulating cell survival and reagents useful for same” (The University of Queensland, priority 1998, dated 2011)
Where no end group is shown, it is not given here.

Experiments:
membrane bound c35 = assay: Protection by soluble c35 / 29mer against death signalling from membrane-bound c35; format: cell-based; settings: for protection against membrane-linked, expressed c35: FIG. 7, microinjection of sptc35, peptide 30 minutes later
Experimental: FIG. 7 is a graphical representation showing protection of membrane-bound killing-domain by a soluble 35 amino acid peptide and a soluble 29 amino acid peptide. The cells were subjected to microinjection of sptc35 or GFP followed 30 minutes later by either peptide c35 or the 29mer peptide.

p75^NTR-mediated death = assay: Modulation of p75NTR-induced killing of microinjected DRG neurons by co-expressed proteins, antisense or caspase inhibitors; format: cell-based, mouse; settings: for p75^NTR-mediated (induced) neural death: neurons over-expressing p75^NTR, in LIF, agent present or co-expressed
Excerpt: The inventors hypothesised that the free cytoplasmic expressed 35 amino acid domain might be able to interfere with death signalling from full length p75^NTR proteins by a dominant-negative mechanism, and attempted to inhibit the death by co-expressing the proteins. Given the results presented below regarding the ability of overexpression of Bcl-2 to enhance p75^NTR killing, this paradigm was used to test the ability of the c35 protein to inhibit death signalling.
As the inventors had shown that the death of dorsal root ganglia (DRG) sensory neurons in vitro and in vivo, was, at least in part, mediated by p75^NTR, p75^NTR was over-expressed in these cells by microinjecting rat p75^NTR cDNA expressing plasmid into the nucleus of mouse sensory neurons. These were cultured in the presence of the LIF to prevent neural death not linked to p75^NTR mechanisms. […] The injected neurons were observed over a 48 hour period and the viability was assessed. […] This was expected since the cytoplasmic tail contains a sequence with homology to the Fas/TNFR “death domain” [9].
The Bcl-2 family of proteins is involved in mediating apoptotic signalling pathways, and can homodimerise or heterodimerise with other family members. Bcl-2 and Bcl-xL are well characterised inhibitors of stress-induced apoptosis, JNK activation and neural death due to growth-factor limitation. However, both are poor inhibitors of Fas and TNFR mediated opoptosis. As it had been shown previously that high levels of Bcl-2 or Bcl-xL blocked neural cell death in a variety of models, the inventors examined whether over-expression of these proteins could block the death induced by p75^NTR.
The inventors tested, therefore, whether high endogenous Bcl-2 levels might be necessary for successful p75^NTR-mediated killing in normal neurons by assaying p75^NTR killing in Bcl-2 depleted cells. Endogenous Bcl-2 was down regulated by antisense as previously described.
To investigate whether the p75^NTR-Bcl-2 death-signalling cascade was dependent on caspase activation, inhibitors of caspases were employed.

[1] = system: dorsal root ganglia (DRG) sensory neurons; assay: Microinjection of plasmid expression constructs into DRG neurons cultured in LIF; survival of injected neurons; format: cell-based, mouse; settings: microinjected DRG neurons cultured in LIF
Experimental: In order to investigate how p75^NTR signals neural death, the inventors devised a robust in vitro assay for p75^NTR induced death. Plasmid expression constructs were microinjected into individual neurons in the presence of the growth factor LIF, and the survival of the neurons expressing the different plasmids was determined. A series of plasmid constructs which encode incomplete p75^NTR proteins were made (see FIG. 1) and the ability of each protein to signal death when over expressed was assessed.
To further investigate the domain required for death signalling the inventors made constructs expressing p75^NTR proteins deleted for the extracellular domain or the extracellular and transmembrane domains. Proteins without extracellular domains retain the signal peptide which is responsible for correctly transporting the protein into the cell membrane. Proteins without transmembrane domains are expressed free in the cytoplasm of the cell and are epitope tagged with a FLAG motif for detection.
As the inventors had shown that the death of dorsal root ganglia (DRG) sensory neurons in vitro and in vivo, was, at least in part, mediated by p75^NTR, p75^NTR was over-expressed in these cells by microinjecting rat p75^NTR cDNA expressing plasmid into the nucleus of mouse sensory neurons. […] The injected neurons were observed over a 48 hour period and the viability was assessed. […]

neurons = assay: Neural death after growth factor withdrawal with Bcl-2 over-expression; format: cell-based, mouse
Excerpt: Thus, at the same expression levels in the same neural population, Bcl-2 was able to prevent or enhance neural cell death depending on the nature of the death signal.

Schwann cells = assay: Protection of Schwann cells against NGF-induced death; format: cell-based; settings: expressed from a genetic construct
cells = assay: Cell death mediated by palmitoylated (membrane-linked) peptides; format: cell-based; settings: FIG. 8
Experimental: FIG. 8 is a graphical representation showing that peptide 29 which has a palmitoyl group at the membrane (amino) end and which facilitates association with the membrane mediates to cell death. […] F, Fluoro tagged; pen, penetratin.
Cells were treated with 2 μM peptide for 1-2 hours then washed. pen, penetratin, F29, 29 mer; Palm, palmitoylation. • ? pen F29 • ? pen F29 Palm • ? pen gp130 Palm • ? pen
The palmitoylation links the peptide to the plasma membrane. This membrane-linked 29mer leads to cell death whereas its soluble form protects cells against p75^NTR-mediated death signalling.
Cells were washed with peptide (2 μM) for approximately 110 minutes and the cells were then washed. Controls included penetratin-fused 29 mer, palmitoylated penetratin-fused 29 mer palmitoylated penetratin-fused gp130 and penetratin alone.

29mer: truncated form of the 35mer; six amino acids deleted from the C-terminal end (SEQ ID NO:12) (KRWNSCKQNKQGANSRPVNQTPPPEGEKL; listed as Rattus norvegicus)
protection against membrane-linked, expressed c35 (membrane bound c35): also protected against membrane-bound c35

Bcl-2 W188A protein: Bcl-2 protein with inactivating point mutation W188A in the BH2 domain
p75^NTR-mediated (induced) neural death (p75^NTR-mediated death): protected neurons from any p75^NTR-induced death

Bcl-2: over-expressed wildtype Bcl-2 protein
neural death / survival after expression of the construct alone [1]: had no effect on cell survival | p75^NTR-mediated (induced) neural death (p75^NTR-mediated death): induced a significant increase in neural death | neural death induced by NGF withdrawal (neurons): able to protect against neural death induced by NGF withdrawal

G145E: Bcl-2 protein with inactivating point mutation G145E in the BH1 domain
p75^NTR-mediated (induced) neural death (p75^NTR-mediated death): enhanced killing effect seen with Bcl-2 coexpression was abrogated

c35 protein: free cytoplasmic 35 amino acid p75NTR domain expressed from a plasmid, not membrane associated, FLAG tagged (KRWNSCKQNKQGANSRPVNQTPPPEGEKLHSDSGI; also: FLAG tagged, end not given here; listed as Rattus norvegicus)
neural death / survival after expression of the construct alone [1]: ability of the domain to induce death is removed | killing induced by co-expression of p75^NTR and Bcl-2 (p75^NTR-mediated death; co-expression in DRG neurons (FIG. 5)): able to inhibit this killing | protection against membrane bound c35 (membrane bound c35; expressed in soluble form): can also protect cells against membrane bound c35 | protection of Schwann cells against NGF-induced death (Schwann cells): protected Schwann cells against NGF-induced death

soluble c35: 35 amino acid domain of p75NTR juxtaposed to the membrane, in soluble form (SEQ ID NO:8) (KRWNSCKQNKQGANSRPVNQTPPPEGEKLHSDSGI; listed as Rattus norvegicus)
protection from death signalling by membrane bound c35 (membrane bound c35; FIG. 6): protects cells from death signalling in a dose-dependent manner | protection against membrane-linked, expressed c35 (membrane bound c35): can also protect against membrane-linked, expressed c35 | cell death / protection (cells): tends to protect the cells

z-VAD [reference compound]
p75^NTR-mediated (induced) neural death (p75^NTR-mediated death): significantly reduced
